Patent publication US20030124727A1, “Multivalent cationic lipids and methods of using same in the production of lipid particles” (priority 2001, published 2003)

Experiments:
[1] = 31P NMR polymorphic phase properties of cationic lipid/DPPS mixtures (bilayer-to-non-bilayer transition); type: physicochemical; details: for temperature at which the mixture adopts the H∥ phase / non-bilayer structure: mixture with DPPS equimolar with respect to charge, hydrated in distilled water; for 31P NMR lineshape (phase structure) at 25° C.: mixture with DPPS
Text: As noted above, the ability of cationic lipids to induce the hexagonal H∥ phase in combination with anionic lipids correlates well with their transfection properties in plasmid DNA-cationic lipid complexes. The relative ability of cationic lipids to induce the H∥ phase can be ascertained by measuring the bilayer-to-non-bilayer transition temperature (Tc) of the cationic lipid in equimolar mixtures (with respect to charge) with an anionic phospholipid such as 1,2-dipalmitoyl-sn-glycero-3-[phospho-L-serine] (DPPS). The bilayer-to-non-bilayer transition can be conveniently monitored employing ^31P NMR techniques (12).
To evaluate the polymorphic phase properties of mixtures of TODMAC3 and TODMAC6 with DPPS, lipid mixtures containing 40-50 mg DPPS and appropriate molar ratios of cationic lipids N,N-dioleyl-N-N-dimethylammonium chloride (DODAC), TODMAC3, and TODMAC6 were prepared by drying from chloroform solution, placed in 10 mm NMR tubes and hydrated with 1.5 mL distilled water. Free induction decays (FIDs) corresponding to 1000 scans were obtained by using a […] 60° pulse with a […] interpulse delay and a spectral width of 25,000 Hz. A gated two-level proton decoupling was used to ensure sufficient decoupling with minimum sample heating. An exponential multiplication corresponding to 50 Hz of line broadening was applied to the FIDs prior to Fourier transformation. The sample temperature (±1° C.) was regulated using a Bruker B-VT1000 variable temperature unit. Chemical shifts were referenced to 85% phosphoric acid as an external standard.

[2] = Preparation of vesicles / bilayer structures on dispersion in aqueous medium; type: physicochemical; details: for preparation of vesicles from cationic lipid/DOPE mixtures: equimolar mixture with DOPE, hydration of lipid film and extrusion; for formation of bilayer structures on dispersion in an aqueous medium: in the presence and absence of DOPE
Experimental: To prepare large unilamellar vesicles (LUV), mixtures of cationic lipids and DOPE in chloroform were dried under a stream of nitrogen gas and the residual solvent removed under high vacuum for 2 hours. The resulting lipid films were hydrated with distilled water. LUVs were obtained by extruding the lipid dispersions 10 times through two stacked 100-nm pore size polycarbonate filters (Costar Nuclepore polycarbonate membrane, Lipex Biomembranes extruder) (15). Phospholipid concentrations were determined by the inorganic phosphorus assays according to Fiske and Subbarow (16).
(§1) DNA plasmid complexes containing TODMAC3 and TODMAC6 are usually formed by mixing plasmid DNA with preformed vesicles containing the cationic lipid mixed with equimolar amounts of the- “helper” lipid- dioleoyfphosphatidylethanolamine (DOPE) (17, 1-8). […] FIG. 3 illustrates the transfection properties of complexes prepared at cationic lipid-to-DNA charge ratios (positive to negative) ranging from 0.5 to 5.

BHK cells = assay: In vitro transfection of BHK cells with plasmid DNA-cationic lipid complexes (luciferase expression); type: cell-based, hamster; details: for transfection properties compared among DODAC, TODMAC6 and TODMAC3: complexes formed from ethanol solution, no DOPE, FIG. 4; for transfection potency relative to complexes containing DODAC: cationic lipid/DOPE vesicles, LO18 luciferase plasmid, FIG. 3
Experimental: Lipoplexes were prepared in distilled water at pDNA concentrations ranging from 12.5-25 μg pDNA/ml at positive-to-negative charge ratios between 0.5-5. Plasmid DNA was added under vortexing to cationic LUVs (cationic lipid/DOPE 1:1). In the absence of the helper lipid DOPE, lipoplexes were prepared by addition of the cationic lipids from ethanol solutions to an aqueous solution containing the pDNA. The amount of ethanol in these formulations was between 0.4-2.3%. The lipoplexes were incubated at room temperature for 30 min, diluted to a final concentration of 2.5 μg pDNA/ml with serum-free media (Dulbecco's Modified Eaglels Medium, DMEM) and subsequently applied to BHK cells.
BHK cells, grown in DMEM supplemented with 10% fetal calf serum (FCS), 100 U/ml of penicillin and 100 μg/ml of streptomycin, were seeded in 96-well plates at a density of 1×10^4 cells per well 24 h before transfection. The next day media was removed and replaced with 100 μl of lipoplexes dispersed in serum-free DMEM (0.25 μg pDNA/100 μl), After 4 hr, lipoplexes were replaced with serum-containing DMEM and cells further incubated for 20 h. After that, the culture medium was aspirated, the cells washed twice with 100 μl of PSS and then lysed through addition of 50 μl of lysis buffer (1% Triton X-100 in PBS). Luciferase activity was measured with a Dynex Luminometer (Dynex model ML3000) using the Luciferase Assay Kit from Promega. The total protein concentration per well was determined using the BCA assay from Pierce. Means and standard deviations were calculated from three independent experiments.
as §1
In order to test the relative transfection potencies of DODAC, TODMAC6 and TODMAC3 a different procedure was used to associate the cationic lipid with the plasmid to form the complexes. In this method the cationic lipid dissolved in ethanol was introduced into an aqueous solution of the plasmid and DOPE was not present. […] Specifically, for charge ratios −2.5, TODMAC6 complexes gave rise to luciferase expression levels 5-20 fold higher than could be achieved with DODAC or TODMAC3.

| SMILES | temperature at which an H∥ component is visible (limited subset of the DPPS; bulk remains bilayer) ([1]; TODMAC3/DPPS 0.5:1 mol:mol (equimolar in charge), 31P NMR) [°C] | temperature of apparently complete H∥ organization ([1]; TODMAC3/DPPS ratio 2:1 on a charge basis) [°C] | phase properties of equimolar mixture with DPPS ([1]; equimolar (mol) proportions of TODMAC3 and DPPS, compared with 0.5:1) | preparation of vesicles from cationic lipid/DOPE mixtures [2] | formation of bilayer structures on dispersion in an aqueous medium [2] | temperature at which the mixture adopts the H∥ phase / non-bilayer structure ([1]; 31P NMR) [°C] | 31P NMR lineshape (phase structure) at 25° C. [1] | transfection properties compared among DODAC, TODMAC6 and TODMAC3 (BHK cells; charge ratios of two and lower) | transfection potency relative to complexes containing DODAC (BHK cells; charge ratios higher than two (up to 5)) | transfection potency relative to complexes containing DODAC (BHK cells; charge ratios of two or lower) | transfection properties compared among DODAC, TODMAC6 and TODMAC3 (BHK cells; charge ratios above two) | luciferase expression levels higher than could be achieved with DODAC or TODMAC3 (BHK cells; complexes without DOPE, charge ratios −2.5) |
| --- | --- | --- | --- | --- | --- | --- | --- | --- | --- | --- | --- | --- |
| CCCCCCCC/C=C\CCCCCCCC[N+](C)(CCCCCCCC/C=C\CCCCCCCC)CCC[N+](C)(CCCCCCCC/C=C\CCCCCCCC)CCCCCCCC/C=C\CCCCCCCC.[Cl-].[Cl-] [TODMAC3, N,N,N1,N1-Tetraoleyl.N,N′-dimethyl-1,3-propanediammonium Chloride] | ≤ 15 | ≥ 25 | increased preference for H∥ phase structure | could not be prepared | does not | – | – | – | – | – | – | – |
| CCCCCCCC/C=C\CCCCCCCC[N+](C)(C)CCCCCCCC/C=C\CCCCCCCC.[Cl-] [DODAC, N,N-dioleyl-N-N-dimethylammonium chloride, reference compound] | – | – | – | – | – | > 35 | bilayer structure | superior | – | – | – | – |
| CCCCCCCC/C=C\CCCCCCCC[N+](C)(CCCCCCCC/C=C\CCCCCCCC)CCCCCC[N+](C)(CCCCCCCC/C=C\CCCCCCCC)CCCCCCCC/C=C\CCCCCCCC.[Cl-].[Cl-] [TODMAC6, N,N,N′,N′-Tetraoleyl-N,N′-dimethyl-1,6-hexanediammonium chloride] | – | – | – | could be readily prepared | readily forms bilayer structures | ~30 | bilayer structure | – | greater | comparable to or slightly lower | superior to both DODAC and TODMAC3 | 5-20 fold |
